The subject of data set [1] is left ventricular contractility. Briefly: Cardiac Stimulant Activity - In vivo (Anaesthetised Cats): increase in left ventricular dp/dt max, i.v. Also on record: species or system cat. To be noted: Felis catus, iv, read-out: ED50 (dose to increase left ventricular dp/dt max by 50%), pretreated with ganglion blocker and propranolol.
Data set [2] concerns PDE (Peak III). Briefly: Inhibition of PDE (Peak III) from cat heart. To be noted: read-out: IC50 × 10^-6, 1 μM cyclic AMP, pH 7.5, 37°.
Description: (§1) The enzyme was assayed by incubation at 37° for 4-30 min in 50 mM Tris, 5 mM MgCl2, pH 7.5 with [3-H] cyclic nucleotide (4×10^5 disintegrations min^-1) and [14-C] nucleotide 5' monophosphate (3×10^3 disintegrations min^-1). The assay was stopped by boiling, and the [3-H] […] The reaction mixture was diluted with 0.5 ml 100 mM HEPES (N-2-Hydroxyethylpiperazine-N'-2-ethanesulfonic acid), 100 mM NaCl, pH 8.5, and applied to the column. […] The recovery of product as judged by [14-C] recovery was approximately 80%. All assays were linear with time of incubation and concentration of enzyme over the range used in these experiments.
For data set [3], the system named is left ventricular dp/dt max. Kind of data set: Cardiac Stimulant Activity - In vivo (Conscious Dogs): left ventricular dp/dt max. Also on record: species or system dog. The procedure: Cardiac Stimulant Activity-In vivo (Conscious Dogs)
Oral administration caused positive inotropic responses at doses of 0.05 mg/kg and below.

In data set [4] the test system is PDE (Peak I). Kind of data set: Substrate kinetics of PDE (Peak I) from cat heart. In kind it is biochemical. Particulars: without calmodulin.
Description: as §1
In data set [5] the test system is histamine-induced bronchoconstriction. Briefly: Bronchodilatation in vivo: histamine-induced bronchoconstriction in anaesthetised guinea-pigs. Also on record: species or system guinea-pig (Dunkin Hartley). Particulars: guinea-pig, i.v.; in words. On the procedure:
Male guinea-pigs of the Dunkin Hartley strain (530 g±6 g) were anaesthetised with Sagatal (pentobarbital sodium) (90 mg/kg i.p.). Airway resistance was measured using a modification of the classical Konzett-Rossler technique (Versuchsanordnung zu Untersuchungen an der Bronchialmuskulatur. Naunyn-Schmiedebergs Arch. Exp. Path. Pharmak., 195: pp 71-74, (1940)). A dose of histamine which gave approximately 150% increase in airway resistance was selected for i.v. administration. Bolus doses of the compound of Example 1 were administered (i.v.) one minute before the histamine challenge.
The threshold dose for this compound was 1×10^-8 mol/kg.

Setting [6] is: in words, in contrast to Example 1.

`O=C1CCC(c2ccc(-n3ccc(=O)cc3)cc2)=NN1` [Example 2, 6-[4-(4-Oxo-1,4-dihydropyridin-1-yl)phenyl]-4,5-dihydro-3(2H)-pyridazinone]: the ED50 in data set [1] amounted to 0.4 µmol/kg. Further, the IC50 in data set [2] came to 5090 nM.
For `O=C1CC2CCc3cc(-n4ccc(=O)cc4)ccc3C2=NN1` (stereo not shown) [Example 13, 8-(4-Oxo-1,4-dihydropyridin-1-yl)-4,4a, 5,6-tetrahydrobenzo[h]cinnolin-3(2H)-one] the same measures were 0.78 µmol/kg and 6600 nM.
Consider `O=c1ccn(-c2ccc(-c3ccc(=O)[nH]n3)cc2)cc1` [Example 3, 6-[4-(4-Oxo-1,4-dihydropyridin-1-yl)phenyl]-3(2H)-pyridazinone], for which the ED50 in data set [1] amounted to 0.47 µmol/kg. In addition, the IC50 in data set [2] came out at 3990 nM.
With `CC1SC(=O)NN=C1c1ccc(-n2ccc(=O)cc2)cc1` (stereo not shown) [Example 10, 5-[4-(4-Oxo-1,4-dihydropyridin-1-yl)phenyl]-6-methyl-3H,6H-1,3,4-thiadiazin-2-one], in data set [1], the ED50 was 0.07 µmol/kg. Moreover, the IC50 in data set [2] turned out to be 440 nM.
On the same counts, the results for `O=C1NCC(c2ccc(-n3ccc(=O)cc3)cc2)=NN1` [Example 6, 6-[4-(4-Oxo-1,4-dihydropyridin-1-yl)phenyl]-4,5-dihydro-1,2,4-triazin-3(2H)-one] are 0.23 µmol/kg and 1750 nM.
For the compound `Nc1cc(-c2ccncc2)c[nH]c1=O` [Amrinone, reference compound], in data set [3] (setting [6]), the “activity in comparison with compound of Example 1” value is recorded as “less active” and the “duration in comparison with compound of Example 1” value is reported as “shorter duration”.
For the compound `O=C1NN=C2c3ccc(-n4ccc(=O)cc4)cc3CC2S1` (stereo not shown) [Example 9, 7-(4-Oxo-1,4-dihydropyridin-1-yl)-9,9a-dihydroindeno[1,2-e][1,3,4]thiadiazin-2(3H)-one], in data set [1], the ED50 amounted to 0.05 µmol/kg. Further, the IC50 in data set [2] was 1250 nM.
For `O=c1ccn(-c2ccc(-c3n[nH]c(=O)s3)cc2)cc1` [Example 14, 5-[4-(4-Oxo-1,4-dihydropyridin-1-yl)phenyl]-1,3,4-thiadiazol-2(3H)-one] the same measures were 0.82 µmol/kg and 2260 nM.
As for `Nc1nc2c(ncn2[C@@H]2O[C@@H]3COP(=O)(O)O[C@H]3[C@H]2O)c(=O)[nH]1` [cyclic GMP], in data set [4], the Michaelis constant (Km) turned out to be 1.8 µM and the “Relative Vmax” value worked out at 1.1.
Turning to `O=c1ccn(-c2ccc(-c3c[nH]c(=O)cn3)cc2)cc1` [Example 11, 5-[4-(4-Oxo-1,4-dihydropyridin-1-yl)phenyl]-2(1H)-pyrazinone], in data set [2], the IC50 amounted to 2640 nM.
Regarding `C[C@H]1CC(=O)NN=C1c1ccc(-n2ccc(=O)cc2)cc1` [Example 17, (S)-5-Methyl-6-[4-(4-oxo-1,4-dihydropyridin-1-yl)phenyl]-4,5-dihydro-3(2H)-pyridazinone], the IC50 in data set [2] was determined as 2580 nM.
On the same count and under the same terms, for `C[C@@H]1CC(=O)NN=C1c1ccc(-n2ccc(=O)cc2)cc1` [Example 16, (R)-5-Methyl-6-[4-(4-oxo-1,4-dihydropyridin-1-yl)phenyl]-4,5-dihydro-3(2H)-pyridazinone] the value was 230 nM.
For `CC1CC(=O)NN=C1c1ccc(-n2ccc(=O)cc2)cc1` (stereo not shown) [Example 1, 5-Methyl-6-[4-(4-oxo-1,4-dihydropyridin-1-yl)phenyl]-4,5-dihydro-3(2H)-pyridazinone], the “changes in blood pressure or heart rate” value in data set [3] (conscious dogs) is listed as “without changes in blood pressure or heart rate”. In data set [3] (conscious dogs, 3 hours = maximum duration of measurement), the “duration of positive inotropic responses” value is “more than 3 hours”. For the same compound, the “'force-rate' selectivity” value in data set [3] (conscious dogs, in words) is “particularly beneficial”. The “effect on histamine-induced bronchoconstriction” value in data set [5] is listed as “reduced the histamine-induced bronchoconstriction”. The 50% inhibitory concentration (IC50) in data set [2] was determined as 410 nM.
For `CC12Cc3cc(-n4ccc(=O)cc4)ccc3C1=NNC(=O)S2` (stereo not shown) [Example 8, 7-(4-Oxo-1,4-dihydropyridin-1-yl)-9a-methyl-9,9a-dihydroindeno[1,2-e][1,3,4]thiadiazin-2(3H)-one], the ED50 in data set [1] amounted to 0.07 µmol/kg. The IC50 in data set [2] is 1320 nM.
For `O=C1COC(c2ccc(-n3ccc(=O)cc3)cc2)=NN1` [Example 5, 2-[4-(4-Oxo-1,4-dihydropyridin-1-yl)phenyl]-4H,6H-1,3,4-oxadiazin-5-one] the same measures were 0.22 µmol/kg and 4330 nM.
Take `O=C1CSC(c2ccc(-n3ccc(=O)cc3)cc2)=NN1` [Example 4, 2-[4-(4-Oxo-1,4-dihydropyridin-1-yl)phenyl]-4H,6H-1,3,4-thiadiazin-5-one]: the ED50 in data set [1] amounted to 0.06 µmol/kg. In addition, the 50% inhibitory concentration (IC50) in data set [2] was determined as 1590 nM.
On the same counts, the results for `CC1NC(=O)NN=C1c1ccc(-n2ccc(=O)cc2)cc1` (stereo not shown) [Example 7, 6-[4-(4-Oxo-1,4-dihydropyridin-1-yl)phenyl]-5-methyl-4,5-dihydro-1,2,4-triazin-3(2H)-one] are 0.11 µmol/kg and 540 nM.

The values are drawn from patent publication US5246928A, “Thiadiazinones for stimulating cardiac activity” (Smith Kline & French Laboratories Limited, priority 1991, dated 1993).
